Source: ChEMBL document CHEMBL5390246, “Design, synthesis and SAR of novel 7-azaindole derivatives as potential Erk5 kinase inhibitor with anticancer activity” (Bioorg Med Chem, 2023)
Values after ≈ are worked out from the molar mass of the structure shown. Active and inactive are the calls of the source. No cut-off for these calls is given here.

How the values were obtained:
A549 [1] = experiment: Antiproliferative activity against human A549 cells assessed as cell growth inhibition rate at 20 ug/mL incubated for 48 hrs by MTT assay relative to control; type: functional; parameters: scale not given: the % may be the effect or the level left; conditions: dose 20 µg/ml
A549 [2] = experiment: Antiproliferative activity against human A549 cells assessed as cell growth inhibition incubated for 48 hrs by MTT assay; type: functional, cell-based; conditions: A549, 48 h
A549 [3] = experiment: Induction of apoptosis in human A549 cells assessed as chromatin condensation at 2.5 to 10 uM incubated for 48 hrs by DAPI staining based fluorescence microscopic analysis; type: functional, cell-based; conditions: dose 2.5-10 µM
A549 [4] = experiment: Induction of apoptosis in human A549 cells assessed as irregular cell morphology at 2.5 to 10 uM incubated for 48 hrs by light microscopic analysis; type: functional, cell-based; conditions: dose 2.5-10 µM
A549 [5] = experiment: Induction of apoptosis in human A549 cells assessed as formation of apoptotic bodies at 2.5 to 10 uM incubated for 48 hrs by DAPI staining based fluorescence microscopic analysis; type: functional, cell-based; conditions: dose 2.5-10 µM
A549 [6] = experiment: Induction of apoptosis in human A549 cells assessed as inhibition of colony formation incubated for 10 days by crystal violet staining based assay; type: functional, cell-based; conditions: dose 2.5-10 µM, time 10.0 day
A549 [7] = experiment: Antitumor activity against human A549 cells assessed as decrease in phosphorylation of Erk5 incubated for 48 hrs by Western blotting analysis; type: functional, cell-based; conditions: dose 2.5-10 µM

Row | SMILES | Activity (A549 [1]) | further results
1 | Clc1ccc(CN2CC=C(c3c[nH]c4ccccc34)CC2)cc1Cl | 56.41% | –
2 | c1ccc2cc(CN3CCC(c4c[nH]c5ncccc45)CC3)ccc2c1 | 76.69% | –
3 | O=C(c1ccc2ccccc2c1)N1CC=C(c2c[nH]c3ncccc23)CC1 | 62.25% | –
4 | O=C(c1ccccc1F)N1CCC(c2c[nH]c3ncccc23)CC1 | 48.02% | –
5 | O=C(c1ccc(Br)cc1)N1CC=C(c2c[nH]c3ncccc23)CC1 | 71.11% | IC50 (A549 [2]): 11 µg/mL (≈ 28.7 µM)
6 | O=C(c1ccc([N+](=O)[O-])cc1)N1CC=C(c2c[nH]c3ncccc23)CC1 | 69.77% | –
7 | Nc1ccc(C(=O)N2CC=C(c3c[nH]c4ncccc34)CC2)cc1 | 45.12% | –
8 | S=C(c1ccc(Cl)cc1)N1CC=C(c2c[nH]c3ncccc23)CC1 | 51.43% | –
9 | Cc1ccc(C(=O)N2CC=C(c3c[nH]c4ncccc34)CC2)cc1 | 41.24% | –
10 | Fc1ccccc1C(=S)N1CC=C(c2c[nH]c3ncccc23)CC1 | 65.92% | –
11 | Cc1ccc(CN2CC=C(c3c[nH]c4ncccc34)CC2)cc1 | 54.95% | –
12 | O=C(c1ccc(F)cc1)N1CC=C(c2c[nH]c3ncccc23)CC1 | 59.94% | –
13 | Clc1cccc(CN2CC=C(c3c[nH]c4ncccc34)CC2)c1 | 52.55% | –
14 | Clc1ccc(CN2CCC(c3c[nH]c4ncccc34)CC2)cc1Cl | 32.22% | –
15 | FC(F)(F)c1ccc(CN2CC=C(c3c[nH]c4ncccc34)CC2)cc1 | 44.64% | –
16 | N#Cc1ccc(CN2CC=C(c3c[nH]c4ncccc34)CC2)cc1 | 9.76% | –
17 | COc1ccc(C(=O)N2CC=C(c3c[nH]c4ncccc34)CC2)cc1 | 70.89% | IC50 (A549 [2]): 10.4 µg/mL (≈ 31.3 µM)
18 | Fc1ccc(CN2CC=C(c3c[nH]c4ncccc34)CC2)cc1 | 43.89% | –
19 | Clc1ccccc1CN1CC=C(c2c[nH]c3ncccc23)CC1 | 84.18% | IC50 (A549 [2]): 12 µg/mL (≈ 37 µM)
20 | C1=C(c2c[nH]c3ncccc23)CCN(Cc2ccc3ccccc3c2)C1 | 90.08% | Activity (A549 [3]): Active; Activity (A549 [4]): Active; Activity (A549 [5]): Active; IC50 (A549 [2]): 4.56 µg/mL (≈ 13.4 µM); Activity (A549 [6]): Dose-Dependent Effect; Activity (A549 [7]): Dose-Dependent Effect

Row | SMILES | Activity (A549 [1]) | further results
21 | O=C(c1cccc(Cl)c1)N1CC=C(c2c[nH]c3ncccc23)CC1 | 73.66% | IC50 (A549 [2]): 10.3 µg/mL (≈ 30.6 µM)
22 | C1=C(c2c[nH]c3ncccc23)CCN(Cc2ccccc2)C1 | 44.74% | –
23 | Clc1ccc(CN2CC=C(c3c[nH]c4ncccc34)CC2)cc1Cl | 80.28% | IC50 (A549 [2]): 7.33 µg/mL (≈ 20.5 µM)
24 | O=C(c1ccccc1Cl)N1CC=C(c2c[nH]c3ncccc23)CC1 | 52.62% | –
25 | O=C(c1ccccc1)N1CC=C(c2c[nH]c3ncccc23)CC1 | 58.37% | –
26 | Clc1ccc(CN2CC=C(c3c[nH]c4ncccc34)CC2)cc1 | 0.74% | –
27 | COc1ccc(CN2CC=C(c3c[nH]c4ncccc34)CC2)cc1 | -3.33% | –
28 | C1=C(c2c[nH]c3ccccc23)CCN(Cc2ccc3ccccc3c2)C1 | 70.17% | –
29 | FC(F)(F)Oc1ccc(CN2CC=C(c3c[nH]c4ncccc34)CC2)cc1 | 46.56% | –
30 | N#Cc1ccc(C(=O)N2CC=C(c3c[nH]c4ncccc34)CC2)cc1 | 21.45% | –
31 | O=C(c1ccc(Cl)cc1)N1CC=C(c2c[nH]c3ccccc23)CC1 | 67.52% | –
32 | O=C(c1ccc(C(F)(F)F)cc1)N1CC=C(c2c[nH]c3ncccc23)CC1 | 65.74% | –
33 | O=C(c1ccc(Cl)cc1)N1CCC(c2c[nH]c3ncccc23)CC1 | 50.17% | –
34 | O=C(c1ccccc1F)N1CC=C(c2c[nH]c3ncccc23)CC1 | 75.54% | IC50 (A549 [2]): 8.52 µg/mL (≈ 26.5 µM)
35 | O=[N+]([O-])c1ccc(CN2CC=C(c3c[nH]c4ncccc34)CC2)cc1 | 16.85% | –
36 | O=C(c1ccccc1F)N1CC=C(c2c[nH]c3ccccc23)CC1 | 50.26% | –
37 | O=C(c1ccc(Cl)c(Cl)c1)N1CC=C(c2c[nH]c3ncccc23)CC1 | 66.12% | –
38 | O=C(c1ccc(Cl)cc1)N1CC=C(c2c[nH]c3ncccc23)CC1 | 82.78% | Activity (A549 [3]): Active; Activity (A549 [4]): Active; Activity (A549 [5]): Active; IC50 (A549 [2]): 6.23 µg/mL (≈ 18.4 µM); Activity (A549 [6]): Dose-Dependent Effect; Activity (A549 [7]): Dose-Dependent Effect
39 | Fc1ccccc1CN1CC=C(c2c[nH]c3ncccc23)CC1 | 3.55% | –
40 | Brc1ccc(CN2CC=C(c3c[nH]c4ncccc34)CC2)cc1 | -25.78% | –
